Read-outs that look alike come from different tables or passages of the source.
Columns and labels:
Aspergillus phoenicis = experiment: Minimum inhibitory concentration against fungi, agar incorporation test, strain L; assay type: cell-based; conditions: malt extract/agar
In short: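 Agar incorporation test in malt extract agar with compound at final 2, 5, 10, 50 and 100 mg/liter, inoculated dropwise with fungus; value is concentration (mg/liter) inhibiting growth.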

Alternaria alternata = experiment: Minimum inhibitory concentration against fungi, agar incorporation test, strain N; assay type: cell-based; conditions: malt extract/agar
In short: (§1)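 First, compound is blended into malt extract agar (final 2, 5, 10, 50 or 100 mg/liter). Next, traces of fungus are applied dropwise. The MIC is then taken as the concentration needed to inhibit growth.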

Pseudomonas aeruginosa = experiment: Minimum inhibitory concentration against bacteria, strain B; assay type: cell-based; conditions: 24 hours at 30° C.; tested at 100 and 300 mg/liter
In short: (§2)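 Overnight culture → 1/1000 in saline → 1/1000 in Caso peptone broth; cpd 100 and 300 mg/liter; 24 h, 30° C., shaking; turbidity scored.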

Proteus vulgaris = experiment: Minimum inhibitory concentration against bacteria, strain A; assay type: cell-based; conditions: 24 hours at 30° C.; tested at 100 and 300 mg/liter
In short: as §2

Serratia marcencens = experiment: Minimum inhibitory concentration against bacteria, strain D; assay type: cell-based; conditions: 24 hours at 30° C.; tested at 100 and 300 mg/liter
In short: as §2

[1] = system: Enteromorpha intestinalis; experiment: Action against Enteromorpha intestinalis: destruction (minimum killing concentration); assay type: in vivo; conditions: 4 hours in seawater, then 6-8 weeks in fresh seawater
Protocol: (§3) The action against the green alga Enteromorpha, which is the most important in seawter fouling, is investigated in sterile-filtered seawater containing an Erd-Schreiber solution. This solution is composed of a nutrient extract, phosphate and nitrate. The incubation of Enteromorpha intestinalis is carried out in a light thermostat at 18° C. under an alternation of 14 hours of light and 10 hours of darkness.
The algae which have been cultured in this way are exposed to the products under investigation for a short time (4 hours) in seawater. The minimum killing concentration (MKC) is determined by taking the algae out of the seawater containing a specific quantity of algicide, after the treatment time in the latter, washing the algae and investigating growth or mortality after incubation in fresh seawater for a further period of 6-8 weeks.
The minimum killing concentration (MKC) indicates the amount of substance required to cause such damage to the algae within a specific time that they can no longer recover in fresh seawater and die out.

Enterobacter aerogenes = experiment: Minimum inhibitory concentration against bacteria, strain C; assay type: cell-based; conditions: 24 hours at 30° C.; tested at 100 and 300 mg/liter
In short: as §2

Chlorella vulgaris = experiment: Action against algae: Chlorella vulgaris; assay type: cell-based; design: key: --: no growth on the agar, 3 ppm have destroyed the algae in 6 hours; conditions: 3 mg/liter; for Growth on the agar (algae-destroying action): 6 hours exposure, 14 days incubation; for Growth in the medium (growth inhibition): 14 days
In short: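 14-day cultures diluted 1/200 in nutrient medium received compound at 3 mg/liter final. After 6 h, samples were spotted on algae/agar for algicidal action; growth inhibition in medium and killing on agar assessed visually after 14 days under 14 h light/10 h dark.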

Chaetomium globosum = experiment: Minimum inhibitory concentration against fungi, agar incorporation test, strain S; assay type: cell-based; conditions: malt extract/agar
In short: as §1

[2] = system: mixed culture of bacteria; assay type: cell-based; design: key: +: growth, no destruction; (+): growth less than that of control (>10 colonies), slight destruction; (-): slight growth (1-10 colonies); -: no growth, destruction
Endomyces geotrichum = experiment: Minimum inhibitory concentration against fungi, agar incorporation test, strain Q; assay type: cell-based; conditions: malt extract/agar
In short: as §1

Aureobasidium pullulans = experiment: Minimum inhibitory concentration against fungi, agar incorporation test, strain R; assay type: cell-based; conditions: malt extract/agar
In short: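 Compounds incorporated in malt extract agar at final 2, 5, 10, 50 and 100 mg/liter. Agar inoculated dropwise with traces of fungus. Value is the concentration (mg/liter) needed to inhibit growth.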

Penicillium funiculosum = experiment: Minimum inhibitory concentration against fungi, agar incorporation test, strain M; assay type: cell-based; conditions: malt extract/agar
In short: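 Compounds incorporated into malt extract agar at final 2, 5, 10, 50 and 100 mg/liter, then inoculated dropwise with fungus. Value is the concentration (mg/liter) inhibiting growth.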

Aspergillus niger = experiment: Minimum inhibitory concentration against fungi, agar incorporation test, strain K; assay type: cell-based; conditions: malt extract/agar
In short: as §1

[3] = system: Enteromorpha intestinalis; experiment: Action against Enteromorpha intestinalis: inhibitory concentration (MIC); assay type: in vivo; conditions: seawater containing biocide for entire test; concentration tested 0.5 mg/liter
Protocol: as §3
For determining the inhibitory concentration (MIC), the algae are kept in seawater containing biocide for the entire duration of the test (concentration tested: 0.5 mg/liter).

[4] = system: Cladosporium cladosporioides; experiment: Minimum inhibitory concentration against fungi, agar incorporation test, strain O; assay type: cell-based; conditions: malt extract/agar
In short: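 Compounds incorporated into malt extract agar at final concentrations of 2, 5, 10, 50 and 100 mg/liter, with fungal traces added dropwise. Value is the concentration (mg/liter) required to inhibit fungal growth.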

Bacillus subtilis = experiment: Minimum inhibitory concentration against bacteria, strain F; assay type: cell-based; conditions: 24 hours at 30° C.; tested at 100 and 300 mg/liter
In short: as §2

[5] = system: Alcaligenes denitrificans; experiment: Minimum inhibitory concentration against bacteria, strain E; assay type: cell-based; conditions: 24 hours at 30° C.; tested at 100 and 300 mg/liter
In short: as §2

Artemia salina = experiment: Action against Artemia salina nauplii; assay type: in vivo; design: key: 0: no change; 1: slight change; 1-2: animals are attacked; 2: animals are strongly attacked; 2-3: animals are nearly all dead; 3: animals are all dead
Protocol: The eggs, which are available commercially, are caused to hatch by vigorous aeration. When 2-3 days old, the nauplii are exposed to the products at various concentrations (concentrations tested: 2.5; 1; 0.5 and 0.25 mg/liter) in synthetic seawater, and are observed over a prolonged period of time.

Candida albicans = experiment: Minimum inhibitory concentration against fungi, agar incorporation test, strain P; assay type: cell-based; conditions: malt extract/agar
In short: as §1

[6] = 5 mg/l, culture diluted 1/1000 in Tyrode
[7] = 5 mg/l, culture diluted 1/10000 in Tyrode
[8] = 10 mg/l, culture diluted 1/1000 in Tyrode
[9] = 10 mg/l, culture diluted 1/10000 in Tyrode
[10] = 30 mg/l, culture diluted 1/1000 in Tyrode
[11] = 30 mg/l, culture diluted 1/10000 in Tyrode
[12] = 60 mg/l, culture diluted 1/1000 in Tyrode
[13] = 60 mg/l, culture diluted 1/10000 in Tyrode
[14] = 100 mg/l, culture diluted 1/1000 in Tyrode
[15] = 100 mg/l, culture diluted 1/10000 in Tyrode

CCCCCCCCCC[N+](C)(C)CCCCCCCCCC.CCC[CH2][Sn-]([Cl])([Cl])([CH2]CCC)[CH2]CCC [Example 4, dimethyl-didecylammonium tributyldichlorostannate-(IV)]
MIC against fungi, strain L (Aspergillus phoenicis): 5 µg/mL | MIC against fungi, strain N (Alternaria alternata): 2 µg/mL | MIC against bacteria, strain B (Pseudomonas aeruginosa): 100 µg/mL | MIC against bacteria, strain A (Proteus vulgaris): 100 µg/mL | MIC against bacteria, strain D (Serratia marcencens): 100 µg/mL | Destruction, 5 mg/liter [1]: yes | MIC against bacteria, strain C (Enterobacter aerogenes): 100 µg/mL | Growth on the agar (algae-destroying action) (Chlorella vulgaris): -- | Growth in the medium (growth inhibition) (Chlorella vulgaris): -- | MIC against fungi, strain S (Chaetomium globosum): 2 µg/mL | Growth (destruction of a mixed culture of bacteria) [2, 6]: + | Growth (destruction of a mixed culture of bacteria) [2, 7]: + | Growth (destruction of a mixed culture of bacteria) [2, 8]: + | Growth (destruction of a mixed culture of bacteria) [2, 9]: (+) (growth less than that of control (>10 colonies), slight destruction) | Growth (destruction of a mixed culture of bacteria) [2, 10]: + | Growth (destruction of a mixed culture of bacteria) [2, 11]: - | Growth (destruction of a mixed culture of bacteria) [2, 12]: (+) (growth less than that of control (>10 colonies), slight destruction) | Growth (destruction of a mixed culture of bacteria) [2, 13]: - | Growth (destruction of a mixed culture of bacteria) [2, 14]: (+) (growth less than that of control (>10 colonies), slight destruction) | Growth (destruction of a mixed culture of bacteria) [2, 15]: - | MIC against fungi, strain Q (Endomyces geotrichum): 5 µg/mL | MIC against fungi, strain R (Aureobasidium pullulans): 2 µg/mL | MIC against fungi, strain M (Penicillium funiculosum): 5 µg/mL | MIC against fungi, strain K (Aspergillus niger): 2 µg/mL | MIC [3]: 0.5 µg/mL | MIC against fungi, strain O [4]: 5 µg/mL | MIC against bacteria, strain F (Bacillus subtilis): 100 µg/mL | MIC against bacteria, strain E [5]: 100 µg/mL | Action against Artemia salina (Artemia salina; 0,5 mg/l, 6 hours): 1-3 | Action against Artemia salina (Artemia salina; 0,5 mg/l, 24 hours): 2-3 | Action against Artemia salina (Artemia salina; 0,5 mg/l, 48 hours): 3 | Action against Artemia salina (Artemia salina; 0,25 mg/l, 6 hours): 0-1 | Action against Artemia salina (Artemia salina; 0,25 mg/l, 24 hours): 2 | Action against Artemia salina (Artemia salina; 0,25 mg/l, 48 hours): 2 | Action against Artemia salina (Artemia salina; 1 mg/l, 6 hours): 2-3 | Action against Artemia salina (Artemia salina; 1 mg/l, 24 hours): 3 | Action against Artemia salina (Artemia salina; 1 mg/l, 48 hours): 3 | Action against Artemia salina (Artemia salina; 2,5 mg/l, 6 hours): 2-3 | Action against Artemia salina (Artemia salina; 2,5 mg/l, 24 hours): 3 | Action against Artemia salina (Artemia salina; 2,5 mg/l, 48 hours): 3 | MIC against fungi, strain P (Candida albicans): 5 µg/mL

CCCCCCCCCCCCCCCC[n+]1ccccc1.CCC[CH2][Sn-]([Cl])([Cl])([CH2]CCC)[CH2]CCC [Example 7, Pyridine-Nhexadecyl / Tributyldichloro]
MIC against fungi, strain L (Aspergillus phoenicis): 10 µg/mL | MIC against fungi, strain N (Alternaria alternata): 5 µg/mL | MIC against bacteria, strain B (Pseudomonas aeruginosa): 100 µg/mL | MIC against bacteria, strain A (Proteus vulgaris): 100 µg/mL | MIC against bacteria, strain D (Serratia marcencens): 100 µg/mL | Destruction, 5 mg/liter [1]: yes | MIC against bacteria, strain C (Enterobacter aerogenes): 100 µg/mL | Growth on the agar (algae-destroying action) (Chlorella vulgaris): -- | Growth in the medium (growth inhibition) (Chlorella vulgaris): -- | MIC against fungi, strain S (Chaetomium globosum): 2 µg/mL | Growth (destruction of a mixed culture of bacteria) [2, 6]: + | Growth (destruction of a mixed culture of bacteria) [2, 7]: + | Growth (destruction of a mixed culture of bacteria) [2, 8]: + | Growth (destruction of a mixed culture of bacteria) [2, 9]: (+) (growth less than that of control (>10 colonies), slight destruction) | Growth (destruction of a mixed culture of bacteria) [2, 10]: (+) (growth less than that of control (>10 colonies), slight destruction) | Growth (destruction of a mixed culture of bacteria) [2, 11]: (-) (slight growth (1-10 colonies)) | Growth (destruction of a mixed culture of bacteria) [2, 12]: - | Growth (destruction of a mixed culture of bacteria) [2, 13]: - | Growth (destruction of a mixed culture of bacteria) [2, 14]: - | Growth (destruction of a mixed culture of bacteria) [2, 15]: - | MIC against fungi, strain Q (Endomyces geotrichum): 5 µg/mL | MIC against fungi, strain R (Aureobasidium pullulans): 2 µg/mL | MIC against fungi, strain M (Penicillium funiculosum): 10 µg/mL | MIC against fungi, strain K (Aspergillus niger): 2 µg/mL | MIC [3]: 0.5 µg/mL | MIC against fungi, strain O [4]: 2 µg/mL | MIC against bacteria, strain F (Bacillus subtilis): 100 µg/mL | MIC against bacteria, strain E [5]: 100 µg/mL | Action against Artemia salina (Artemia salina; 0,5 mg/l, 6 hours): 1-2 | Action against Artemia salina (Artemia salina; 0,5 mg/l, 24 hours): 2 | Action against Artemia salina (Artemia salina; 0,5 mg/l, 48 hours): 3 | Action against Artemia salina (Artemia salina; 0,25 mg/l, 6 hours): 0-1 | Action against Artemia salina (Artemia salina; 0,25 mg/l, 24 hours): 2 | Action against Artemia salina (Artemia salina; 0,25 mg/l, 48 hours): 2-3 | Action against Artemia salina (Artemia salina; 1 mg/l, 6 hours): 2 | Action against Artemia salina (Artemia salina; 1 mg/l, 24 hours): 3 | Action against Artemia salina (Artemia salina; 1 mg/l, 48 hours): 3 | Action against Artemia salina (Artemia salina; 2,5 mg/l, 6 hours): 2-3 | Action against Artemia salina (Artemia salina; 2,5 mg/l, 24 hours): 3 | Action against Artemia salina (Artemia salina; 2,5 mg/l, 48 hours): 3 | MIC against fungi, strain P (Candida albicans): 5 µg/mL

Reference: patent publication US4578489A (priority 1982, dated 1986)
